Assays:
OPM2 and RPMI-8226 cells = assay: MTT assay with IGF-1 rescue; format: cell-based; settings: OPM2 and RPMI-8226, IGF-1 alone or together with C98, 48 hr
Description: (§1) To answer whether C98 could induce apoptosis in other MM cells, 5 more MM cells were subject to the study. […] Cell apoptosis induced by C98 was further confirmed by the increased fraction of positive cells stained with Annexin V (Figure 5). To show whether activated PI3K signals can rescue C98 effects on MM cells, both OPM2 and RPMI-8226 cells were treated with IGF-1 alone or together with C98 for 48 hr followed by MTT assay.
Cell viability was assessed with the MTT assay as reported previously. To show apoptosis, MM cells were incubated for 24 hr with increasing concentrations of C98 before being stained with Annexin V-FITC and propidium iodide (BioVision Milpitas, CA). Apoptotic cells were measured on a flow cytometer (FACSCalibur®, Becton Dickinson) as reported as previously. […]
www.impactjournals.com/oncotarget/ Oncotarget, Supplementary Materials 2014
Supplementary Figure S3: IGF-1 rescues C98-decreased MM cell proliferation. OPM2 and RPMI-8226 cells were treated with IGF-1 alone or increased C98 for 48 hr, followed by MTT assay. […]

IGF-1R = assay: Immunoblotting of IGF-1R phosphorylation in starved, IGF-1-stimulated LP1 and JJN3 cells; format: cell-based; settings: 100 μM, 2 hr, then IGF-1
Description: (§2) (B) LP1 and JJN3 cells were starved overnight, then treated with C98 or S14161 for 2 hr, followed by IGF-1 (100 ng/mL) for 15 min. Cells were then prepared for the analysis of the expression of p-AKT, t-AKT, p-IGF-1R, and IGF-1R by immunoblotting. (C) OPM2 and JJN3 cells were treated with increasing concentrations of C98 for 24 hr before being applied to immunoblotting against p-ERK, t-ERK, p-P38, t-P38, p-Src, t-Src, p-STAT3, or t-STAT3. GAPDH and β-actin were used as loading controls.
(§3) To find out whether C98 also interfered with other signaling pathways, we first checked the receptor tyrosine kinase IGF-1R, which mediates PI3K activation in MM cells in the presence of IGF-1. Starved MM cells LP1 and JJN3 were incubated with C98 followed by IGF-1 stimulation. […] Moreover, we also measured the expression of PTEN, a negative regulator of PI3K signaling, in MM cells after C98 treatment.
(§4) The immunoblotting assays were performed as described previously. IRDye 680 goat anti-mouse and IRDye 800CW goat anti-rabbit antibodies were from Odyssey (San Ramon, CA, USA).

[1] = test system: KMS11, LP1, OCI-My5, OPM2, JJN3, and RPMI-8226; assay: Immunoblotting of PARP and caspase-3 cleavage in MM cell lines; format: cell-based; settings: all cell lines examined, 20 μM, 24 hr
Description: as §1
Figure 4 C98 activates apoptotic signaling in MM cells (A) JJN3 cells were treated with C98 (0, 2.5, 5, 10, 20 μM) for 24 hr or 10 μM for 0, 3, 6, or 9 hr, followed by immunoblotting for the expression of p-AKT, t-AKT, pro-caspase-3 (Pro-Casp3), and cleaved caspase-3 (Cle-Casp3). (B) KMS11, LP1, OCI-My5, OPM2, JJN3, and RPMI-8226 were treated with C98 (20 μM) for 24 hr, followed by immunoblotting for the expression of PARP, Pro-Casp3, and Cle-Casp3. GAPDH was used as a loading control.
as §4

[2] = Body weight and hematology analysis in xenograft mice; format: in vivo
Description: Totally 50 female […] mice from Shanghai Slac Laboratory Animal Co. Ltd were used for the xenograft models with human MM cell lines OPM2 and JJN3, respectively. When tumors were palpable, the OPM2-xenograft mice were randomly divided into two groups. One group as a control was received the vehicle, and another group was orally administrated C98 (80 mg/kg) once a day for continuous 16 days. The JJN3 xenografted mice were randomly divided into three groups which were orally administrated vehicle or C98 (40 or 80 mg/kg), respectively. Body weight and tumor volumes were measured every other day as described previously. At the end of this experiment, tumors were collected for further studies. The concentrations of C98 in tumor tissues were also determined by LC-MS/MS as described above. All experiments involved in mice were reviewed and approved by the Review Board of Animal Care and Use of Soochow University.
At the end of the experiment of the in vivo studies, whole blood samples were collected from the eyes and were immediately subject to complete blood analysis as described previously. […]
www.impactjournals.com/oncotarget/ Oncotarget, Supplementary Materials 2014 […]
OPM2 (A) and JJN3 (B) were injected (s.c.) […]
into nude mice. When tumors were palpable, mice were orally administrated C98 at dosage as indicated for continued 16 days. Mice bodyweight was monitored every other day. […]

p38 = assay: Immunoblotting of p38 phosphorylation in OPM2 and JJN3 cells; format: cell-based, human; settings: OPM2 and JJN3, 24 hr
Description: as §2
To further clarify the effects of C98 on other signaling pathways associated with PI3K signaling, we evaluated ERK and p38, both of which mediate extracellular signaling similar to PI3K. […] We also checked the phosphorylation status of STAT3, a signal transducer and activator of transcription. […] Therefore, C98 had no effects on these kinases/proteins associated with PI3K signaling.
as §4

PTEN = assay: Immunoblotting of PTEN protein level in MM cells; format: cell-based; settings: MM cells after C98 treatment
Description: as §3, §4

For N#C/C(=C\C=C\c1ccc(-c2cc(Cl)ccc2Cl)o1)C(N)=S [C98], the “MM cell proliferation (MTT), rescue by IGF-1” value (OPM2 and RPMI-8226 cells) was “IGF-1 could partly abolish C98-decreased MM cell proliferation”, the “IGF-1R activation (phosphorylation)” value (IGF-1R) was “had no effects on IGF-1R activation” and the “cleavage of caspase-3 and PARP (apoptosis)” value [1] was “both caspase-3 and PARP were cleaved”. For the same compound, the “body weight of mice” value ([2]; OPM2 and JJN3 xenograft models, oral 40 or 80 mg/kg, 16 days) was “had no effects on body weight”, the “blood cell count, platelet count, hemoglobin measurement” value ([2]; mice treated with C98, end of the in vivo studies (data not shown)) was “no significant changes” and the “phosphorylation level of p38” value (p38) was “failed to decrease”. For the same compound, the PTEN protein level (PTEN) was “had no effects on the PTEN protein level”.
